d = 2'-deoxy (DNA); r = 2'-OH (RNA)
Test system: SKOV3 cells
Assay: TUNEL apoptosis assay, SKOV3
Format: cell-based, human
Conditions: sensitive and resistant cell lines
Experimental: Terminal deoxynucleotidyl transferase-mediated nick end labeling-positive cells were detected using Dead End Fluorometric terminal deoxynucleotidyl transferase-mediated nick end labeling system (APO-DIRECT, BD Biosciences/PharMingen, San Diego, Calif.) according to the manufacturer's instructions. […] Cells were fixed with 4% paraformaldehyde solution for 25 minutes on ice. Intracellular DNA fragments were then labeled by exposing cells to fluorescein-12-dUTP, treated with propidium iodide and RNaseA solution, and analyzed by flow cytometry (EPICS XL, Beckman Coulter, Miami, Fla.). The percentages of apoptotic cells were averaged over three consecutive experiments.

control siRNA: sense r(UUUUCCGAACGUGUCACGU)dTT, antisense r(ACGUGACACGUUCGGAGAA)dTT, no homology with human mRNA; in vivo in DOPC (sense UUUUCCGAACGUGUCACGUTT; antisense ACGUGACACGUUCGGAGAATT; sugars from the 5' end r19 d2, backbone not given here)
apoptosis in combination with docetaxel: did not enhance apoptosis in combination with docetaxel
